# Laboratory results taken from ChEMBL document CHEMBL3046180, “Antifungal activity of some diaryl ethers” (2007).
# Active and inactive are the calls of the source. No cut-off for these calls is given here.
# How the values were obtained:
# [1] = system: Fusarium oxysporum f. sp. cucumerinum; experiment: Growth inhibition of Fusarium oxysporum f. sp. cucumerinum at 50 ug/ml after 4 days by poisoned food technique; type: functional; details: 96 h, read-out: GI
# Alternaria brassicae [2] = experiment: Growth inhibition of Alternaria brassicae at 50 ug/ml after 4 days by poisoned food technique; type: functional; details: 96 h, read-out: GI
# Pyricularia oryzae [3] = experiment: Growth inhibition of Magnaporthe oryzae at 500 ug/ml after 4 days by poisoned food technique; type: functional; details: 96 h, read-out: GI
# Bipolaris sorokiniana [4] = experiment: Growth inhibition of Bipolaris sorokiniana at 50 ug/ml after 4 days by poisoned food technique; type: functional; details: 96 h, read-out: GI
# [5] = system: Fusarium oxysporum f. sp. cucumerinum; experiment: Growth inhibition of Fusarium oxysporum f. sp. cucumerinum at 500 ug/ml after 4 days by poisoned food technique; type: functional; details: 96 h, read-out: GI
# [6] = system: Fusarium oxysporum f. sp. vasinfectum; experiment: Growth inhibition of Fusarium oxysporum f. sp. vasinfectum at 500 ug/ml after 4 days by poisoned food technique; type: functional; details: 96 h, read-out: GI
# [7] = system: Fusarium oxysporum f. sp. vasinfectum; experiment: Growth inhibition of Fusarium oxysporum f. sp. vasinfectum at 50 ug/ml after 4 days by poisoned food technique; type: functional; details: 96 h, read-out: GI
# Bipolaris sorokiniana [8] = experiment: Growth inhibition of Bipolaris sorokiniana at 500 ug/ml after 4 days by poisoned food technique; type: functional; details: 96 h, read-out: GI
# Alternaria alternata [9] = experiment: Growth inhibition of Alternaria alternata at 500 ug/ml after 4 days by poisoned food technique; type: functional; details: 96 h, read-out: GI
# Alternaria alternata [10] = experiment: Growth inhibition of Alternaria alternata at 50 ug/ml after 4 days by poisoned food technique; type: functional; details: 96 h, read-out: GI
# Alternaria brassicae [11] = experiment: Growth inhibition of Alternaria brassicae at 500 ug/ml after 4 days by poisoned food technique; type: functional; details: 96 h, read-out: GI
# Pyricularia oryzae [12] = experiment: Growth inhibition of Magnaporthe oryzae at 50 ug/ml after 4 days by poisoned food technique; type: functional; details: 96 h, read-out: GI
# Fusarium graminearum [13] = experiment: Growth inhibition of Fusarium graminearum at 50 ug/ml after 4 days by poisoned food technique; type: functional; details: 96 h, read-out: GI
# Fusarium graminearum [14] = experiment: Growth inhibition of Fusarium graminearum at 500 ug/ml after 4 days by poisoned food technique; type: functional; details: 96 h, read-out: GI
# Fusarium graminearum [15] = experiment: Antifungal activity against Fusarium graminearum assessed as mycelial growth inhibition at 250 to 500 ug/ml after 4 days by poisoned food technique; type: functional, organism-based
SMILES,inhibition of growth at 50 µg/mL [1],inhibition of growth at 50 µg/mL (Alternaria brassicae [2]),inhibition of growth at 500 µg/mL (Pyricularia oryzae [3]),inhibition of growth at 50 µg/mL (Bipolaris sorokiniana [4]),inhibition of growth at 500 µg/mL [5],inhibition of growth at 500 µg/mL [6],inhibition of growth at 50 µg/mL [7],inhibition of growth at 500 µg/mL (Bipolaris sorokiniana [8]),inhibition of growth at 500 µg/mL (Alternaria alternata [9]),inhibition of growth at 50 µg/mL (Alternaria alternata [10]),inhibition of growth at 500 µg/mL (Alternaria brassicae [11]),inhibition of growth at 50 µg/mL (Pyricularia oryzae [12]),inhibition of growth at 50 µg/mL (Fusarium graminearum [13]),inhibition of growth at 500 µg/mL (Fusarium graminearum [14]),growth inhibition (GI) (Fusarium graminearum [15])
Cc1cccc(Oc2ccccc2[N+](=O)[O-])c1,50.2%,58.9%,82.8%,85.5%,46%,46.7%,53.2%,58.5%,74.5%,49%,73.9%,56.3%,38.8%,70.1%,–
O=[N+]([O-])c1ccc(Oc2ccccc2)cc1,61.2%,55.5%,81.9%,87.2%,72.9%,83.4%,81.8%,73%,83.8%,66.8%,76%,48%,71.6%,87.4%,–
O=[N+]([O-])c1ccc(Oc2ccc(Cl)cc2)cc1,34.1%,42.7%,63.8%,78.1%,38%,43.4%,41.4%,74.3%,61.3%,47.4%,47.2%,47.6%,63%,66.8%,–
CC(C)(C)c1ccc(Oc2ccccc2[N+](=O)[O-])cc1,8.4%,38.4%,44.8%,50.3%,17.3%,11.2%,19.3%,38.7%,53.3%,33%,37.4%,37.9%,38.8%,52.7%,–
O=[N+]([O-])c1ccccc1Oc1ccccc1,55.6%,79%,92%,95%,65.3%,70.9%,70.1%,30.2%,95.3%,62.2%,87.9%,58%,64.9%,94%,Active
Cc1cccc(Oc2ccc([N+](=O)[O-])cc2)c1,57.9%,37.3%,60.3%,44.4%,64.6%,74.3%,65.1%,32%,61.2%,48.4%,52.8%,39.2%,62.8%,92.4%,–
O=[N+]([O-])c1ccccc1Oc1ccc(Cl)cc1,44.9%,61%,69%,79.9%,50.2%,47.5%,40.3%,40.9%,71.7%,51.8%,74.3%,48.3%,59.7%,73.6%,–
O=[N+]([O-])c1ccc(Oc2ccccc2Cl)cc1,38.8%,36%,77.5%,89.5%,75.5%,55.6%,47.5%,66%,81.9%,60.4%,65.3%,47.8%,79.5%,92.8%,–
N#Cc1ccccc1Oc1ccc(Cl)cc1,48.8%,56.8%,77.7%,68%,54.3%,57%,52.5%,56.2%,78%,55.9%,74.1%,59.7%,79.6%,83.7%,–
Cc1cc(O)no1 [HYMEXAZOL],19.8%,89%,100%,100%,91.5%,92.3%,45.8%,37.1%,100%,82.3%,100%,66.4%,38.7%,99.4%,–
"O=[N+]([O-])c1ccc(Oc2ccccc2[N+](=O)[O-])cc1 [2,4'-OXYBIS(NITROBENZENE)]",9.3%,8.5%,47.1%,42.2%,33.3%,42.7%,19.3%,35.3%,56.3%,49.3%,49.6%,31.4%,66.2%,68.7%,–
"O=[N+]([O-])c1ccc(Oc2ccc([N+](=O)[O-])cc2)cc1 [4,4'-OXYBIS(NITROBENZENE)]",38%,36.8%,36.6%,20.4%,50.9%,63.6%,57.6%,16.7%,19.8%,15%,75.2%,1.9%,13.6%,3.1%,–
CC(C)(C)c1ccc(Oc2ccccc2C#N)cc1,20.4%,43.5%,43.1%,42.8%,33.3%,44.3%,20.1%,38.4%,51%,35.8%,53.3%,43.7%,38.3%,56%,–
CC(C)(C)c1ccc(Oc2ccc([N+](=O)[O-])cc2)cc1,3.6%,32%,40.4%,21.6%,10.3%,67.7%,14.1%,23.5%,27.7%,25.5%,32%,32%,55.6%,56%,–
O=[N+]([O-])c1ccccc1Oc1ccccc1Cl,48%,64.5%,71.6%,88.7%,53.8%,58%,59.7%,71.1%,74%,52.8%,76.2%,51%,65.2%,78.6%,–
